The results in this text go back to US7030139B2, “Compounds” (AstraZeneca AB, priority 2001, dated 2006).

Assay [1] has as its target T1, hCB2 (Homo sapiens, UniProt P34972).
T1 construct: purchased BioSignal
As to the kind of experiment: hCB2 receptor binding (3H-CP55,940 displacement, membranes).

Assay [2] deals with T1, hCB2. As to the kind of experiment: hCB2 GTPγS binding. The assay is classed as biochemical.
A further assay addresses T2, hCB2-Sf9 (Homo sapiens, UniProt P34972).
T2 construct: host or cells: Sf9 (inferred from the head 'hCB2-Sf9')
As to the kind of experiment: Ki hCB2-Sf9 binding (compounds made in a plate). The following applies: Table 2, printed in the IC50 (nM) column; n = 2; measured from 2 compounds made in a plate.

Like-named read-outs stand apart in the source and are kept apart here.

T1 sequence (P34972 whole entry): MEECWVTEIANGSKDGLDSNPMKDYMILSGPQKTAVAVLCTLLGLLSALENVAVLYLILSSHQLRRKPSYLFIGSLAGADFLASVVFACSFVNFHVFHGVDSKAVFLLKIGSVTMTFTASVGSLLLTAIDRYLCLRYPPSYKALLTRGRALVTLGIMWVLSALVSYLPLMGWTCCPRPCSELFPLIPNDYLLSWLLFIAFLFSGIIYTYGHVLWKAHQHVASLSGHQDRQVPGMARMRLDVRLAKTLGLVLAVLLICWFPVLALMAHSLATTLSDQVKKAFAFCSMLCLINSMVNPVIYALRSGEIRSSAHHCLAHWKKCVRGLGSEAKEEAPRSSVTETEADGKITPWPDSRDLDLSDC
T2 sequence (P34972 whole entry): as above

Regarding `CCOc1ccc(Cc2nc3cc(C(=O)N(CC)CC)ccc3n2C[C@@H]2CCCO2)cc1` [Example 42], at hCB2 [1] (hCB2 IC50 (nM)), the IC50 – broadly, the concentration that inhibits the measured activity by half – worked out at 23 nM. Further, on hCB2 [2], the EC50 (in general, the concentration needed to bring the measured effect to its halfway point) was 5 nM and the Emax – broadly, the size of the effect at its maximum, as opposed to the concentration needed – is 76%.
`CCOc1ccc(Cc2nc3cc(N(C)C(=O)CC(C)C)ccc3n2Cc2ccsc2)cc1` [Example 47, N-[2-[(4-Ethoxyphenyl)methyl]-1-(3-thienylmethyl)1H-benzimidazol-5-yl]-N,3-dimethyl-butanamide] returned an IC50 on hCB2 [1] (hCB2 IC50 (nM)) of 3.3 nM. Besides, at hCB2 [2], the EC50 is 1.4 nM and the Emax turned out to be 70%.
Regarding `CCOc1ccc(Cc2nc3cc(C(=O)N(CC)CC)ccc3n2CCC(=O)OC)cc1` [Example 5, Methyl 3-[5-[(diethylamino)carbonyl]-2-(4-ethoxybenzyl)-1H-benzimidazol-1-yl]propanoate], affinity on hCB2 [1] was put at a Ki of 142 nM. This compound also came in with an EC50 on hCB2 [2] of 65 nM. Further, the Emax on hCB2 [2] (read-out: % Emax, hCB2) worked out at 53%.
In the same order, the values of `CCOc1ccc(Cc2nc3cc(CN4CCOCC4)ccc3n2CC2CC2)cc1` [Example 24, 1-(Cyclopropylmethyl)-2-(4-ethoxybenzyl)-5-(4-morpholinylmethyl)-1H-benzimidazole] are 178 nM, 81 nM and 62%.
Regarding `CCOc1ccc(Cc2nc3cc(C(=O)N(CC)CC)ccc3n2CC2CC2)cn1` [Example 13, 1-(Cyclopropylmethyl)-2-[(6-ethoxy-3-pyridinyl)methyl]-N,N-diethyl-1H-benzimidazole-5-carboxamide], the affinity on hCB2 [1], expressed as Ki, was 133 nM. The compound further displayed an EC50 on hCB2 [2] of 97 nM. The maximum response (Emax) at hCB2 [2] (read-out: % Emax, hCB2) was 93%.
For `CCOc1ccc(Cc2nc3cc(N(C)S(=O)(=O)c4ccccc4)cnc3n2CC2CC2)cc1` [Example 61, N-[3-(Cyclopropylmethyl)-2-[(4-ethoxyphenyl)methyl]-3H-imidazo[4,5-b]pyridin-6-yl]-N-methyl-benzenesulfonamide], on hCB2-Sf9, the affinity corresponds to a Ki of 11.4 nM.
Consider `CCOc1ccc(C(C)c2nc3cc(N(C)C(=O)CC(C)C)ccc3n2CC2CC2)cc1` (stereo not shown) [Example 52, N-[1-(Cyclopropylmethyl)-2-[1-(4-ethoxyphenyl)ethyl]-1H-benzimidazol-5-yl]-N,3-dimethyl-butanamide], for which the Emax at hCB2 [2] is 41%.
In the case of `CCOc1ccc(C(O)c2nc3cc(C(=O)N(CC)CC)ccc3n2CCC(C)C)cc1` (stereo not shown) [Example 46, 2-[(4-Ethoxyphenyl)hydroxymethyl]-N,N-diethyl-(3-methylbutyl)-1H-benzimidazole-5-carboxamide], the IC50 on hCB2 [1] (hCB2 IC50 (nM)) was 100 nM. Moreover, on hCB2 [2], the EC50 worked out at 69 nM and the Emax was found to be 70%.
With `CCOc1ccc(Cc2nc3cc(N(C)S(=O)(=O)c4cccs4)cnc3n2CC2CC2)cc1` [Example 62, N-[3-(Cyclopropylmethyl)-2-[(4-ethoxyphenyl)methyl]-3H-imidazo[4,5-b]pyridin-6-yl]-N-methyl-2-thiophenesulfonamide], the affinity on hCB2-Sf9 corresponds to a Ki of 4.5 nM.
Turning to `CCOc1ccc(C(C)c2nc3cc(N(C)C(=O)NC(C)C)ccc3n2CC2CC2)cc1` (racemic) [Example 53, (rac)-N-[1-(Cyclopropylmethyl)-2-[1-(4-ethoxyphenyl)ethyl]1H-benzimidazol-5-yl]-N-methyl-N′-(1-methylethyl)-urea], the IC50 at hCB2 [1] (hCB2 IC50 (nM)) is 36 nM. On hCB2 [2], this compound displayed an EC50 of 6.7 nM and an Emax of 46%.
At hCB2 [1] (hCB2 IC50 (nM)), `CCOc1ccc(C(C)c2nc3cc(N(C)C(=O)NC(C)C)ccc3n2CC2CC2)cc1` (single isomer, unassigned; (+)) [Example 55, (+)-N-[1-(Cyclopropylmethyl)-2-[1-(4-ethoxyphenyl)ethyl]-1H-benzimidazol-5-yl]-N-methyl-N′-(1-methylethyl)-urea] showed an IC50 of 715 nM.
`CCOc1ccc(C(C)c2nc3cc(N(C)C(=O)NC(C)C)ccc3n2CC2CCCCC2)cc1` (stereo not shown) [Example 56, N-[1-(Cyclohexylmethyl)-2-[1-(4-ethoxyphenyl)ethyl]-1H-benzimidazol-5-yl]-N-methyl-N′-(1-methylethyl)-urea] showed an IC50 at hCB2 [1] (hCB2 IC50 (nM)) of 5.4 nM. Moreover, at hCB2 [2], the midpoint of the response, the EC50, lay at 1.5 nM and the Emax amounted to 88%.
On to `C=CCNc1ccc2c(c1)nc(Cc1ccc(OCC)cc1)n2CC1CC1` [Example 33, N-Allyl-1-(cyclopropylmethyl)2-(4-ethoxybenzyl)-1H-benzimidazol-5-amine], for which the inhibitory constant (Ki) (commonly the dissociation constant of the complex between target and ligand, obtained from inhibition or displacement) at hCB2 [1] (Table 1, human CB2 membranes, 3H-CP55,940, read-out: Ki(hCB2)) turned out to be 308 nM. Besides, the 50% effective concentration (EC50) on hCB2 [2] (Table 1, GTPγS binding, human CB2 membranes, read-out: EC50, hCB2, nM) is 146 nM. The maximum response (Emax) at hCB2 [2] (Table 1, GTPγS binding, maximal stimulated binding defined with 1 μM Win 55,212-2, read-out: % Emax, hCB2) was found to be 54%.
Compound `CCOc1ccc(Cc2nc3cc(N(C)C(=O)CC(C)C)cnc3n2CC2CC2)cc1` [Example 59, N-[3-(Cyclopropylmethyl)-2-[(4-ethoxyphenyl)methyl]-3H-imidazo[4,5-b]pyridin-6-yl]-N,3-dimethyl-butanamide] displayed a concentration for half-maximal inhibition (IC50) at hCB2 [1] (hCB2 IC50 (nM)) of 328 nM. On hCB2 [2], this compound registered an EC50 of 64 nM and a maximum response (Emax) of 67%.
On the same counts, the results for `CCOc1ccc(Cc2nc3cc(C(=O)N(CC)CC)cnc3n2Cc2ccc([N+](=O)[O-])s2)cc1` [Example 57, 2-[(4-Ethoxyphenyl)methyl]-N,N-diethyl-3-[(5-nitro-2-thienyl)methyl]-3H-imidazo[4,5-b]pyridine-6-carboxamide] are 9.5 nM, 2.8 nM and 72%.
The compound `CCOc1ccc(Cc2nc3cc(N(C)C(=O)CC(C)C)ccc3n2Cc2ccc(COC(C)=O)o2)cc1` [Example 49, N-[1-[[5-[(Acetyloxy)methyl]-2-furanyl]methyl]-2-[(4-ethoxyphenyl)methyl]-1H-benzimidazol-5-yl]-N,3-dimethyl-butanamide] displayed an IC50 at hCB2 [1] (hCB2 IC50 (nM)) of 32 nM. On hCB2 [2], this compound had an EC50 of 6.8 nM and an Emax of 67%.
On to `CCOc1ccc(Nc2nc3cc(C(=O)N(CC)CC)ccc3n2CCC(C)C)cc1` [Example 39, 2-(4-Ethoxyanilino)-N,N-diethyl-1-isopentyl-1H-benzimidazole-5-carboxamide], for which, at hCB2 [1], the affinity corresponds to a Ki of 98 nM. For the same compound, the response on hCB2 [2] was half-maximal at 64 nM (EC50). Moreover, the Emax at hCB2 [2] (read-out: % Emax, hCB2) turned out to be 64%.
As for `CCOc1ccc(Cc2nc3cc(NC(=O)OC)ccc3n2CC2CC2)cc1` [Example 26, Methyl-1-(cyclopropylmethyl)-2-(4-ethoxybenzyl)-1H-benzimidazol-5-yl carbamate], on hCB2 [2], the “% Emax, hCB2” value is recorded as 295(41%). At hCB2 [2] (read-out: EC50, hCB2, nM), the concentration for a half-maximal effect (EC50) is 295 nM.
The compound `CCOc1ccc(C(C)c2nc3cc(N(C)C(=O)NC(C)C)ccc3n2CC2CC2)cc1` (single isomer, unassigned; (-)) [Example 54, (−)-N-[1-(Cyclopropylmethyl)-2-[1-(4-ethoxyphenyl)ethyl]-1H-benzimidazol-5-yl]-N-methyl-N′-(1-methylethyl)-urea] returned an IC50 at hCB2 [1] (hCB2 IC50 (nM)) of 15.5 nM. At hCB2 [2], the midpoint of the response, the EC50, lay at 3.4 nM and the maximal response (Emax) is 66%.
Turning to `CCOc1ccc(Cc2nc3cc(N(C)C(=O)NC(C)C)cnc3n2CC2CC2)cc1` [Example 60, N-[3-(Cyclopropylmethyl)-2-[(4-ethoxyphenyl)methyl]-3H-imidazo[4,5-b]pyridin-6-yl]-N-methyl-N′-(1-methylethyl)-urea], the IC50 at hCB2 [1] (read-out: hCB2 IC50) came to 970 nM.
On hCB2 [1] (hCB2 IC50 (nM)), `CCOc1ccc(Cc2nc3cc(C(=O)N(CC)CC)ccc3n2Cc2ccsc2)cc1` [Example 40, 2-[(4-Ethoxyphenyl)methyl]-N,N-diethyl-1-(3-thienylmethyl)-1H-benzimidazole-5-carboxamide] displayed an IC50 of 2.8 nM. At hCB2 [2], the EC50 is 1.2 nM and the maximal response (Emax) amounted to 74%.
